# Measurements published in patent publication EP3492086B1, “PHARMACEUTICAL COMPOSITION COMPRISING ZEBULARINE (1-(BETA-D-RIBOFURANOSYL)-2(1H)-PYRIMIDINONE) FOR USE IN PROMOTING REGENERATION AND WOUND HEALING” (Uniwersytet Gdanski, priority 2017, dated 2019).
# Key:
# [1] = system: laboratory mice; details: GM284 topical delivery (US2009/0093528A1); XAV-939 (Bastakoty et al. 2015); 1,4-DPCA (Zhang et al. 2015); cited from earlier work
# [2] = system: ear pinnae of the BALB/c 2-month-old female mice; assay: Ear pinnae hole closure (ear pinnae injury model, 2 mm through-and-through holes); type: in vivo
# Procedure: In order to evaluate the regenerative effect of zebularine, through-and-through holes of 2 mm diameter were made in the ear pinnae of the BALB/c 2-month-old female mice using scissor style ear punch. The mice were randomly divided into two groups consisting of six individuals each. The mice of one group were intraperitoneally injected with 7 doses of zebularine dissolved in saline (50 mg/ml), 1000 mg/kg body weight, on the day of injury directly after punching, and 1, 2, 3, 4, 7, 10 days after injury. The second, control group, was administered with saline.
# The experiment was repeated 8 times. Collectively, the experiment was performed for 47 zebularine treated and 48 saline (vehiculum) administered control mice. […] The mean ear hole areas determined on the day 42 post injury were 0.53+/-0.3 and 1.77+/-0.48 sq mm for zebularine treated and saline controls, respectively. The results expressed as percentage of wound closure correspond to 83.2% and 43.6% for the zebularine treated and control group, respectively (Figure 2).The timeline of regeneration process is presented in Figure 3. […] The distributions of ear hole areas on the day 42 after injury were plotted as dot diagrams, where each dot represents an individual ear (Figure 4). The diagrams not only show the biological variation in response to injury and zebularine treatment but clearly expose the contrast between the control and zebularine treated groups. […]
# [3] = system: Cdkn2a, Msx1, Nanog, Sox2, Bdnf, Sox1, Nog, and Myt1l; assay: Expression of pluripotency, developmental and cell cycle genes in the injury/repair area (real-time PCR); type: in vivo; details: day 7 after injury; zebularine treated versus control mice; most remarkable for Nanog and Sox2
# From the text: In order to determine the effect of zebularine on the expression of pluripotency, developmental and cell cycle genes, the transcript levels for a panel of selected genes including Cdkn2a, Msx1, Nanog, Sox2, Bdnf, Sox1, Nog, and Myt1l were examined in the injury/repair area, in zebularine treated and control mice at the day 7, 14, 21 and 42 following injury in addition to unwounded ear pinnae designated as day 0. For the purpose, the ear punched mice were sacrificed at selected time points, the ears were collected on RNAlater reagent (Qiagen), stored at -80 °C until the rings surrounding the holes were excised using a 3 mm biopsy punch, following RNA extraction from thus obtained tissues using RNeasy kit (Qiagen). The levels of selected transcripts were determined for 6 mice (8 ears) for each time point using real-time PCR quantitation and Tbp and Actb as the reference genes. […] The most remarkable changes were found for the pluripotency genes, Nanog and Sox2 (Figure 7).
# [4] = system: mice; details: 400 mg/kg body weight intraperitoneally for 78 consecutive days (Herranz et al. 2006); cited from earlier work
# [5] = estimated (Ben-Kasus et al. 2005); cited from earlier work
# [6] = system: 5-methylcytosine; assay: Global DNA methylation in the injury/regeneration area (5-mC DNA ELISA); type: in vivo, mice; details: day 7 following injury; zebularine treated versus control
# From the text: DNA methylation in promoter regions is one of key epigenetic mechanisms responsible for gene repression. In order to determine the zebularine demethylating effect on DNA in the regenerating tissues, the content of 5-methylcytosine was compared in the tissues collected from the rings surrounding the ear pinnae holes in the zebularine treated and control animals. For the purpose, the ear punched zebularine treated and control mice were sacrificed at the days 7, 14, 21, and 42 after injury. The ears were collected, and the rings surrounding the holes were excised with a 3 mm biopsy punch, following genomic DNA extraction from thus obtained tissues using DNeasy kit (Qiagen). The levels of 5-methylcytosine were estimated using 5-mC DNA ELISA Kit (ZYMO, D5325) in 100 ng aliquots of genomic DNA.
# [7] = system: dorsal skin wounds, mice of the BALB/c strain; assay: Dorsal skin excision model, topical delivery, wound closure; type: in vivo
# Procedure: The effect of topically delivered zebularine on wound healing was determined using the dorsal skin excision model. Six 2-month-old female mice of the BALB/c strain were used for the experiment. Prior to the injury, the mice were anaesthetized. The dorsal skin was shaved and disinfected. Two symmetrical full-thickness excisional wounds were made in the dorsum using a biopsy punch of 6 mm diameter. Ten microliter of zebularine suspension (200 mg per 1 ml of saline) was dropped directly onto the wound immediately after wounding and once daily for the next four days. Promptly after zebularine application, the wounds were covered with a transparent dressing, and next, the dressing was fastened with adhesive plaster wrapped around the mouse. An analogical experiment was performed for six mice of control group that were not treated with zebularine. The animal study protocol was approved by the Local Ethics Committee for Animal Experimentation at the University of Science and Technology in Bydgoszcz, Poland (Permit No. 49/2016).
# The wounds were photographed on the day of injury (d0) and on the day 2, 4, 7, 9, 11, 14, and 18 after wounding. The wound closure progress was tracked by determining wound area using computer-assisted image analysis. […] Complete wound closure was observed on the day 11 for zebularine treated mice and on the day 18 for the control ones (Figure 13).
# [8] = 37°C, pH 7.4 (Cheng et al. 2003); cited from earlier work
compound,measurement,setting,value
"O=C(O)c1c[nH]c2c(ccc3cccnc32)c1=O [1,4-DPCA, 4-oxo-1H-1,10-phenanthroline-3-carboxylic acid]",ear hole closure reported in the literature (result in words),[1],partial ear hole closure induction
"CC1=C(/C=C/C(C)=C/C=C/C(C)=C/C(=O)O)C(C)(C)CCC1=O [4-keto RA, 4-keto retinoic acid, reference compound]",ear hole closure (result in words),"[2]; Example 4: i.p., zebularine 1000 mg/kg 7 times, RA or 4-keto RA 16 mg/kg 6 times, followed for 42 days",Partial ear hole closure
"Nc1ncn([C@@H]2O[C@H](CO)[C@@H](O)[C@H]2O)c(=O)n1 [5-azacytidine, reference compound]",effect on ear hole closure (result in words),"[2]; 0.25 mg/kg body weight i.p., 7 times, day 42, 6 mice, compared with zebularine and saline",did not stimulate ear hole closure
CCC(C)(C)C(=O)C(=O)N1CCC[C@H]1c1nnc([C@@H]2CCCN2C(=O)C(=O)C(C)(C)CC)o1 [GM284],ear hole closure reported in the literature (result in words),[1],Ear hole closure
Oc1nc(-c2ccc(C(F)(F)F)cc2)nc2c1CSCC2 [XAV-939],ear hole closure reported in the literature (result in words),[1],partial ear hole closure induction
"O=c1ncccn1[C@@H]1O[C@H](CO)[C@@H](O)[C@H]1O [zebularine, 1-(β-D-ribofuranosyl)-2(1H)-pyrimidinone]",expression of the selected transcripts in the injury/repair area,[3],Significantly enhanced expression
same,toxic effects in mice,[4],No toxic effects
same,RNA incorporation relative to DNA incorporation,[5],7 fold
same,DNA methylation (5-methylcytosine content) in the injury/regeneration area,[6],significant decrease in DNA methylation
same,mean ear hole areas determined on the day 42 post injury,"[2]; 1000 mg/kg body weight intraperitoneally, 7 doses (day 0, 1, 2, 3, 4, 7, 10), 47 mice, saline control 1.77+/-0.48",0.53+/-0.3 sq mm
same,day after injury of maximal ear hole closure,"[2]; 1000 mg/kg i.p., 7 doses",35 days
same,day after injury from which significantly better ear hole closure was recorded,"[2]; 1000 mg/kg i.p., 7 doses, versus saline control",21 days
same,percentage of wound closure (ear hole closure area),"[2]; day 42 after injury, 1000 mg/kg i.p., 7 doses, control group 43.6%",83.2%
same,time to almost complete closure of the ear pinnae hole,"[2]; representative mouse, 1000 mg/kg i.p., 7 doses (Figure 1)",approximately 30 days
same,effect of subcutaneous delivery on ear pinnae hole closure,"[2]; subcutaneous injections, 1000 mg/kg, 7 doses, day 42 (Figure 6)",statistically significant response but proved less effective than intraperitoneal delivery
same,decrease of the time of wound closure,"[7]; 10 microliter of 200 mg/ml suspension after wounding and once daily for four days, 6 mm wounds",approximately 7 days
same,day of complete wound closure,"[7]; 10 microliter of 200 mg/ml suspension, five applications, control day 18",11 days
same,half-life in water,[8],21.2 days
